One assay has as its target BbFpn N196A (Bdellovibrio bacteriovorus, UniProt Q6MLJ0, N196A). In words: Isothermal titration calorimetry, N196A BbFpn. It is filed as binding, Bdellovibrio bacteriovorous. Background: Isothermal titration calorimetry measures the heat released or taken up as one component is titrated into another.
In a further assay the target is BbFpn E203A (Bdellovibrio bacteriovorus, UniProt Q6MLJ0, E203A). The assay can be described thus: Isothermal titration calorimetry, E203A BbFpn. It counts as binding, Bdellovibrio bacteriovorous.
The next assay deals with BbFpn Q84E (Bdellovibrio bacteriovorus, UniProt Q6MLJ0, Q84E). The assay can be described thus: Isothermal titration calorimetry, Q84E BbFpn. It is filed as binding, Bdellovibrio bacteriovorous.
In a further assay the target is T1, Fpn-C2-E219A (Mus musculus, UniProt Q9JHI9, DEL251-290/DEL401-449/E219A).
T1 construct: generated from full-length mouse Fpn (UniProt: Q9JHI9); GFP (C); made in house; host or cells: Sf9 insect cells (baculovirus)
T1 sequence (Q9JHI9 with tags, fused parts or gaps E219A/DEL251-290/DEL401-449): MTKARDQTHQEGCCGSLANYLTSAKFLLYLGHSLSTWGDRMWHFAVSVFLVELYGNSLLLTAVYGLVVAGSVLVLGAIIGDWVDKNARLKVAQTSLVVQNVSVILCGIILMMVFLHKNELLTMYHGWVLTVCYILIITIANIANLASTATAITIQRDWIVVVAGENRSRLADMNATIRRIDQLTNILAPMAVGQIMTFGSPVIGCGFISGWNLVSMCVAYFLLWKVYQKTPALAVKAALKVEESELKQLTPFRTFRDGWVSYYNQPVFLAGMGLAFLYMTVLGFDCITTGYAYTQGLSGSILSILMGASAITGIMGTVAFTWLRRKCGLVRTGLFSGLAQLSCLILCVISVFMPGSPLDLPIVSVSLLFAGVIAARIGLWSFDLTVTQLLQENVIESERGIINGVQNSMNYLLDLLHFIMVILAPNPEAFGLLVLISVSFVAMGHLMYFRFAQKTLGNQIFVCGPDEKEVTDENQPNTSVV
The assay can be described thus: Isothermal titration calorimetry, Fpn-C2-E219A mutant. It counts as binding. The text has this:
To obtain a purified mammalian Fpn protein conducive for biophysical studies, we generated a protein construct with an increased thermal stability (Deshpande et al., 2018). In brief, the construct (Fpn-C2) was generated from full-length mouse Fpn (UniProt: Q9JHI9 [https://www.uniprot.org/uniprot/Q9JHI9]) by deleting two-loop regions (residues 251–290 and 401–449), followed by an overlapping PCR incorporating the E219A mutation to generate Fpn-C2-E219A. […]
For Fpn-C2 and Fpn-C2-E219A purification (Deshpande et al., 2018), Sf9 cells were thawed at room temperature with the addition of 2 μl Benzonase (250 units/μL, Sigma-Aldrich), 1 mM MgSO4, 0.2 mM PMSF, and lysed by a single pass through cooled EmulsiFlex-C3 homogenizer (Avestin). […] The SEC eluted protein was concentrated to ~10 mg/ml as determined by the BCA assay (Thermo Fisher Scientific) method and stored at −80 °C until further use. […]
In each experiment, the protein solution was loaded into the sample cell, and the ligand solution was loaded in the syringe. […] To obtain the effective heat of binding, the heat of dilution, measured by injecting the ligand solution alone into buffer, was subtracted prior to data analysis. […]

Sequence of BbFpn N196A (Q6MLJ0 whole entry N196A): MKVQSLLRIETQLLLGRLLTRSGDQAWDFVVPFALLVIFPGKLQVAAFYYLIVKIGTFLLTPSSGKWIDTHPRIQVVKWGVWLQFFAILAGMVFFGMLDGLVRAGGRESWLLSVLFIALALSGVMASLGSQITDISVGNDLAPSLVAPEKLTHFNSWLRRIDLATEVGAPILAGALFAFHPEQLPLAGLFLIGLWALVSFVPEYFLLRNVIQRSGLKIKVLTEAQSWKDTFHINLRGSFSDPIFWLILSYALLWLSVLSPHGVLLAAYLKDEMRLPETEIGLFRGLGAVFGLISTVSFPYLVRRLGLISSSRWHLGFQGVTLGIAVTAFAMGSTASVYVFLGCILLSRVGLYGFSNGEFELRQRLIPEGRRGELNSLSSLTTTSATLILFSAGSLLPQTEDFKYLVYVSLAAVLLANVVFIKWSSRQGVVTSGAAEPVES
Sequence of BbFpn E203A (Q6MLJ0 whole entry E203A): as the sequence (Q6MLJ0 whole entry N196A) above, with A196N, E203A counted along it
Sequence of BbFpn Q84E (Q6MLJ0 whole entry Q84E): as the sequence (Q6MLJ0 whole entry N196A) above, with Q84E, A196N counted along it

Take `[Ca+2]` [Ca^2+, calcium]: the “Binding to N196A BbFpn by ITC (in words)” value on BbFpn N196A is “complete loss”. Further, at BbFpn E203A, the “Binding to E203A BbFpn by ITC (in words)” value is reported as “complete loss”. Moreover, the “Binding to Q84E BbFpn by ITC (in words)” value at BbFpn Q84E is recorded as “no Ca^2+ or Sr^2+ binding”. Besides, the “Binding to Fpn-C2-E219A by ITC (in words)” value at Fpn-C2-E219A is listed as “no binding”.
